What was measured:
Assay type in all cases: biochemical
[1] = molecular target: T1, B-Raf V600E (Homo sapiens, UniProt P15056, V600E); assay: AlphaScreen kinase assay, B-Raf V600E; conditions: read-out: IC50, activity toward kinase B-Raf V600E
T1 construct: P4254. pFastBacBD-CDC37 BRAF D437-K722-X, V600E; His6 with pFastBac HT leader (TEV site) (N); made in house; host or cells: Sf9 (baculovirus; chaperone CDC37 co-expressed)

[2] = molecular target: T2, Kit (Homo sapiens, UniProt P10721); assay: AlphaScreen kinase assay, Kit; conditions: read-out: IC50, activity toward kinase Kit
T2 construct: P1332.N6 BI PTP KIT M552-K948-X COD; His6 (N); made in house; host or cells: E. coli (PTP1B co-expressed)
T2 sequence (P10721 with tags, fused parts or gaps): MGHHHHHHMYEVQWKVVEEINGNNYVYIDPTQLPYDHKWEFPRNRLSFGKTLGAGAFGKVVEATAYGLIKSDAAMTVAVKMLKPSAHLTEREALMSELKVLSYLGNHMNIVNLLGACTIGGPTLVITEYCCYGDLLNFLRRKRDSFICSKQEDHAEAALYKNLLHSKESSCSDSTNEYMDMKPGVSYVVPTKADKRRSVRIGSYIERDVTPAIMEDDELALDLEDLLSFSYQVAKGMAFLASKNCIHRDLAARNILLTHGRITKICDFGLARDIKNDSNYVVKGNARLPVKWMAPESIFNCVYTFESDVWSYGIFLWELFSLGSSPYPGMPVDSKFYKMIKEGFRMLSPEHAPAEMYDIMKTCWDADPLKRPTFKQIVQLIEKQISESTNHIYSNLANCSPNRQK

[3] = molecular target: T3, Fms (Homo sapiens, UniProt P07333); assay: AlphaScreen kinase assay, Fms; conditions: read-out: IC50, activity toward kinase Fms
T3 construct: purchased Upstate Biotechnology
T3 sequence (P07333 20-972): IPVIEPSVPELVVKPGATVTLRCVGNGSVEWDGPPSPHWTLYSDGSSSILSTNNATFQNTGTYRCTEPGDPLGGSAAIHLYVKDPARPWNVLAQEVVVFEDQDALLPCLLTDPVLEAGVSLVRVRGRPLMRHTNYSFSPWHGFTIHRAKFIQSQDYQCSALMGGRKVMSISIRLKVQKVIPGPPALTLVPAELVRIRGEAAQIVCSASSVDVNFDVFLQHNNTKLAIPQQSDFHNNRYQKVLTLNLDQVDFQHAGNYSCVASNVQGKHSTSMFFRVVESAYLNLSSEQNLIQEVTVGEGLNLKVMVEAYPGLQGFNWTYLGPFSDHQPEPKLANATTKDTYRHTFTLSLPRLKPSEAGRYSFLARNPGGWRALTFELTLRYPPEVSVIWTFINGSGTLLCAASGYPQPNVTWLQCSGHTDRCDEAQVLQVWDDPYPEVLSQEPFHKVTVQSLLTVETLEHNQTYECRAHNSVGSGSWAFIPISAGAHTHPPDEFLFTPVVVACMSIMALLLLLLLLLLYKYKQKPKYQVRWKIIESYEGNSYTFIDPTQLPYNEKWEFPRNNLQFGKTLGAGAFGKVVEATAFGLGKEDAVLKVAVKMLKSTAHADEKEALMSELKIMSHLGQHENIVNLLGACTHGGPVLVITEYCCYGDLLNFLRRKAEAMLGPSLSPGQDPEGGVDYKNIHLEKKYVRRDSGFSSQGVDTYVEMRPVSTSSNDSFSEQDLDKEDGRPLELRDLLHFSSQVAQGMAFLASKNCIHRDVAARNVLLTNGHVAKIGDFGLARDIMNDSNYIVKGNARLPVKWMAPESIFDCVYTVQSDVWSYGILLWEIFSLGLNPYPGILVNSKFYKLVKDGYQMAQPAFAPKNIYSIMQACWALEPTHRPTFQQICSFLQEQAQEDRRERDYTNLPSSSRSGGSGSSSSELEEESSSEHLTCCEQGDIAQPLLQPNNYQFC

[4] = molecular target: T4, B-Raf (Homo sapiens, UniProt P15056); assay: AlphaScreen kinase assay, B-Raf; conditions: read-out: IC50, activity toward kinase B-Raf
T4 construct: purchased Upstate Biotechnology
T4 sequence (P15056 whole entry): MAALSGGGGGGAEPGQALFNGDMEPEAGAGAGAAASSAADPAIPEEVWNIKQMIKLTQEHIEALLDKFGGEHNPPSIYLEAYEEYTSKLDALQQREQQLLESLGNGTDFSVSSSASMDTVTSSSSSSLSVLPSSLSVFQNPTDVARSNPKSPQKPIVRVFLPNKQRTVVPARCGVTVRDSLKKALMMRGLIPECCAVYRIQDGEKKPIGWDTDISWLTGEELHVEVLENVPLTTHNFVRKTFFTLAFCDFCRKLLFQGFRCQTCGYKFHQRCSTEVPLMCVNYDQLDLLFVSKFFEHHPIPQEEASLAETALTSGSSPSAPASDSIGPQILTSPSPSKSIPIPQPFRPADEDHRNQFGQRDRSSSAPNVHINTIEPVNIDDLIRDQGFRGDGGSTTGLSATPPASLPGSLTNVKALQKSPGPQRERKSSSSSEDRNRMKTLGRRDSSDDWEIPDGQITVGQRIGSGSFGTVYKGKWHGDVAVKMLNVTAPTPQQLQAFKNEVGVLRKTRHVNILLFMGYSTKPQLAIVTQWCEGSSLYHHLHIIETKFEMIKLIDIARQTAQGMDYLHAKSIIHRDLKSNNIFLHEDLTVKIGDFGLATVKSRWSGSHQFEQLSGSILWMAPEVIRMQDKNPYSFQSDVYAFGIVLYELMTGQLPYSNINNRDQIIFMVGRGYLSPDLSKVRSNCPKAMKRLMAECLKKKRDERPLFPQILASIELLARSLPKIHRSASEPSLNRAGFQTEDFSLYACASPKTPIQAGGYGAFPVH

[5] = molecular target: T5, FGFR1 (Homo sapiens, UniProt P11362, C488A/C584S); assay: AlphaScreen kinase assay, FGFR1; conditions: read-out: IC50, activity toward kinase FGFR
T5 construct: P1351.pET N6 BI-PTP FGFR A458-E765-X C488A, C584S; made in house; host or cells: E. coli (PTP1B co-expressed)
T5 sequence (P11362 458-765 C488A/C584S): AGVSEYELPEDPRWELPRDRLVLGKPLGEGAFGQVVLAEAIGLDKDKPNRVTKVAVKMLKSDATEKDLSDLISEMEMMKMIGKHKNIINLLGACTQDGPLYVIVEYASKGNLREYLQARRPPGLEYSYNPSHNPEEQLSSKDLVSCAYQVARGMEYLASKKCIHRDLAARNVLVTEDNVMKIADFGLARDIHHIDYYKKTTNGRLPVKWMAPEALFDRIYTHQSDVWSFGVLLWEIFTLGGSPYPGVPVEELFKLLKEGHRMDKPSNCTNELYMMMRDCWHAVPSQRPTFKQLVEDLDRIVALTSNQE

T1 sequence (P15056 with tags, fused parts or gaps V600E): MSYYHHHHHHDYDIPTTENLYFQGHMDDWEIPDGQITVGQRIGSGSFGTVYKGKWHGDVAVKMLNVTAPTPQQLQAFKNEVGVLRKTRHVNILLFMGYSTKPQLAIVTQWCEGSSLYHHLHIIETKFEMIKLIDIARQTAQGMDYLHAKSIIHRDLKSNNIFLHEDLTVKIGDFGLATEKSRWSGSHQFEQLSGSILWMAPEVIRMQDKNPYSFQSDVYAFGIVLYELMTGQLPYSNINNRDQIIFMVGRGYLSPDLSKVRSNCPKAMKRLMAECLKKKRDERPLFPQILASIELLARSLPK

IC50 [1] [µM] | IC50 [2] [µM] | IC50 [3] [µM] | IC50 [4] [µM] | IC50 [5] [µM] | SMILES
≤ 10 | ≤ 10 | ≤ 10 | ≤ 10 |  | COCCOc1cnc2[nH]cc(C(=O)c3c(F)ccc(NS(=O)(=O)c4ccc(F)cc4)c3F)c2c1 [Compound P-1872, N-{2,4-Difluoro-3-[5-(2-methoxy-ethoxy)-1H-1-pyrrolo[2,3-b]pyridine-3-carbonyl]-phenyl}-4-fluoro-benzenesulfonamide]
 |  | ≤ 10 | ≤ 10 | ≤ 10 | O=C(c1ccc(F)cc1F)c1c[nH]c2ncc(-c3cccnc3)cc12 [Compound P-1555]
≤ 10 |  | ≤ 10 | ≤ 10 |  | COc1ccc(-c2cnc3[nH]cc(C(=O)c4c(F)ccc(NS(=O)(=O)c5cccc(F)c5)c4F)c3c2)cn1 [Compound P-2012, N-{2,4-Difluoro-3-[5-(6-methoxy-pyridin-3-yl)-1H-pyrrolo[2,3-b]pyridine-3-carbonyl]-phenyl}-3-fluoro-benzenesulfonamide]
≤ 10 | ≤ 10 | ≤ 10 | ≤ 10 |  | O=C(Nc1ccc(Cl)cc1)Nc1cccc(C(=O)c2c[nH]c3ncccc23)c1 [Compound P-1709, 1-(4-Chloro-phenyl)-3-[3-(1H-pyrrolo[2,3-b]pyridine-3-carbonyl)-phenyl]-urea]
≤ 10 |  | ≤ 10 | ≤ 10 |  | O=C(Nc1cccc(C(=O)c2c[nH]c3ncc(-c4ccc(F)cc4)cc23)c1)Nc1ccc(F)c(F)c1 [Compound P-1817, 1-(3,4-Difluoro-phenyl)-3-{3-[5-(4-fluoro-phenyl)-1H-pyrrolo[2,3-b]pyridine-3-carbonyl]-phenyl}-urea]
≤ 10 |  | ≤ 10 | ≤ 10 |  | COc1cnc2[nH]cc(C(=O)c3cc(NS(=O)(=O)c4cccc(F)c4)ccc3Cl)c2c1 [Compound P-1664]
≤ 10 |  | ≤ 10 | ≤ 10 |  | O=C(Nc1cccc(Cl)c1)Nc1cccc(C(=O)c2c[nH]c3ncc(-c4cccnc4)cc23)c1 [Compound P-1726, 1-(3-Chloro-phenyl)-3-[3-(5-pyridin-3-yl-1H-pyrrolo[2,3-b]pyridine-3-carbonyl)-phenyl]-urea]
≤ 10 |  | ≤ 10 | ≤ 10 |  | O=C(Nc1ccc(C(F)(F)F)cc1)Nc1cccc(C(=O)c2c[nH]c3ncccc23)c1 [Compound P-1717, 1-[3-(1H-Pyrrolo[2,3-b]pyridine-3-carbonyl)-phenyl]-3-(4-trifluoromethyl-phenyl)-urea]
≤ 10 |  | ≤ 10 | ≤ 10 |  | O=C(c1cc(NS(=O)(=O)c2cccc(F)c2)ccc1Cl)c1c[nH]c2ncc(Cl)cc12 [Compound P-1663]
≤ 10 |  | ≤ 10 | ≤ 10 |  | O=C(c1cccc(NS(=O)(=O)c2ccc(C(F)(F)F)cc2)c1)c1c[nH]c2ncccc12 [Compound P-1784]
≤ 10 |  | ≤ 10 | ≤ 10 |  | COc1cc(NC(=O)Nc2cccc(C(=O)c3c[nH]c4ncc(Cl)cc34)c2)cc(C(F)(F)F)c1 [Compound P-1773, 1-[3-(5-Chloro-1H-pyrrolo[2,3-b]pyridine-3-carbonyl)-phenyl]-3-(3-methoxy-5-trifluoromethyl-phenyl)-urea]
≤ 10 |  | ≤ 10 | ≤ 10 |  | O=C(Nc1cccc(C(=O)c2c[nH]c3ncc(Cl)cc23)c1)Nc1ccc(F)c(F)c1 [Compound P-1735, 1-[3-(5-Chloro-1H-pyrrolo[2,3-b]pyridine-3-carbonyl)-phenyl]-3-(3,4-difluoro-phenyl)-urea]
≤ 10 |  | ≤ 10 | ≤ 10 |  | COCCOc1cnc2[nH]cc(C(=O)c3c(F)ccc(NS(=O)(=O)c4ccc(C(F)(F)F)cc4)c3F)c2c1 [Compound P-2005, N-{2,4-Difluoro-3-[5-(2-methoxy-ethoxy)-1H-pyrrolo[2,3-b]pyridine-3-carbonyl]-phenyl}-4-trifluoromethyl-benzenesulfonamide]
≤ 10 |  | ≤ 10 | ≤ 10 |  | COc1cnc2[nH]cc(Cc3c(F)ccc(OCc4ccccc4)c3F)c2c1 [Compound P-1804, 3-(3-Benzyloxy-2,6-difluoro-benzyl)-5-methoxy-1H-pyrrolo[2,3-b]pyridine]
≤ 10 |  | ≤ 10 | ≤ 10 |  | O=C(c1c(F)ccc(NS(=O)(=O)c2ccc(C(F)(F)F)cc2)c1F)c1c[nH]c2ncc(-c3ccc(Cl)cc3)cc12 [Compound P-1670]
≤ 10 |  | ≤ 10 | ≤ 10 |  | CN(C)c1ccc(NC(=O)Nc2cccc(C(=O)c3c[nH]c4ncccc34)c2)cc1 [Compound P-1780, 1-(4-Dimethylamino-phenyl)-3-[3-(1H-pyrrolo[2,3-b]pyridine-3-carbonyl)-phenyl]-urea]
≤ 10 |  | ≤ 10 | ≤ 10 |  | COCCOc1ccc(-c2cnc3[nH]cc(C(=O)c4c(F)ccc(NS(=O)(=O)c5ccc(C(F)(F)F)cc5)c4F)c3c2)cc1 [Compound P-2013, N-(2,4-Difluoro-3-{5-[4-(2-methoxy-ethoxy)-phenyl]-1H-pyrrolo[2,3-b]pyridine-3-carbonyl}-phenyl)-4-trifluoromethyl-benzenesulfonamide]
≤ 10 |  | ≤ 10 | ≤ 10 |  | O=C(Nc1ccc(F)cc1)Nc1cccc(C(=O)c2c[nH]c3ncc(-c4ccc(F)cc4)cc23)c1 [Compound P-1816, 1-(4-Fluoro-phenyl)-3-{3-[5-(4-fluoro-phenyl)-1H-pyrrolo[2,3-b]pyridine-3-carbonyl]-phenyl}-urea]
≤ 10 |  | ≤ 10 | ≤ 10 |  | O=C(Nc1cccc(C(=O)c2c[nH]c3ncccc23)c1)Nc1ccc(C(F)(F)F)c(Cl)c1 [Compound P-1766, 1-(3-Chloro-4-trifluoromethyl-phenyl)-3-[3-(1H-pyrrolo[2,3-b]pyridine-3-carbonyl)-phenyl]-urea]
≤ 10 |  | ≤ 10 | ≤ 10 |  | COc1ccc(NC(=O)Nc2cccc(C(=O)c3c[nH]c4ncc(Cl)cc34)c2)cn1 [Compound P-1774, 1-[3-(5-Chloro-1H-pyrrolo[2,3-b]pyridine-3-carbonyl)-phenyl]-3-(6-methoxy-pyridin-3-yl)-urea]
≤ 10 |  | ≤ 10 | ≤ 10 |  | O=C(Nc1cccnc1)Nc1cccc(C(=O)c2c[nH]c3ncccc23)c1 [Compound P-1781, 1-Pyridin-3-yl-3-[3-(1H-pyrrolo[2,3-b]pyridine-3-carbonyl)-phenyl]-urea]
≤ 10 |  | ≤ 10 | ≤ 10 |  | O=C(Nc1cccc(C(=O)c2c[nH]c3ncccc23)c1)Nc1cccc(C(F)(F)F)c1 [Compound P-1746, 1-[3-(1H-Pyrrolo[2,3-b]pyridine-3-carbonyl)-phenyl]-3-(3-trifluoromethyl-phenyl)-urea]
≤ 10 |  | ≤ 10 | ≤ 10 |  | O=C(Nc1cccc(Cl)c1)Nc1cccc(C(=O)c2c[nH]c3ncc(Cl)cc23)c1 [Compound P-1736, 1-(3-Chloro-phenyl)-3-[3-(5-chloro-1H-pyrrolo[2,3-b]pyridine-3-carbonyl)-phenyl]-urea]
≤ 10 |  | ≤ 10 | ≤ 10 |  | O=C(Nc1cccc(C(=O)c2c[nH]c3ncc(Cl)cc23)c1)Nc1cccc(C(F)(F)F)c1 [Compound P-1747, 1-[3-(5-Chloro-1H-pyrrolo[2,3-b]pyridine-3-carbonyl)-phenyl]-3-(3-trifluoromethyl-phenyl)-urea]
≤ 10 |  | ≤ 10 | ≤ 10 |  | O=C(c1c(F)ccc(NS(=O)(=O)c2ccc(-c3ccccn3)s2)c1F)c1c[nH]c2ncc(Cl)cc12 [Compound P-1800, 5-Pyridin-2-yl-thiophene-2-sulfonic acid [3-(5-chloro-1H-pyrrolo[2,3-b]pyridine-3-carbonyl)-2,4-difluoro-phenyl]-amide]
≤ 10 |  | ≤ 10 | ≤ 10 |  | N#Cc1ccc(S(=O)(=O)Nc2cccc(C(=O)c3c[nH]c4ncccc34)c2)cc1 [Compound P-1701]
≤ 10 |  | ≤ 10 | ≤ 10 |  | O=C(c1c(F)ccc(NS(=O)(=O)c2cc3ccccc3s2)c1F)c1c[nH]c2ncc(Cl)cc12 [Compound P-1799, Benzo[b]thiophene-2-sulfonic acid [3-(5-chloro-1H-pyrrolo[2,3-b]pyridine-3-carbonyl)-2,4-difluoro-phenyl]-amide]
≤ 10 |  | ≤ 10 | ≤ 10 |  | COc1ccc(NC(=O)Nc2cccc(C(=O)c3c[nH]c4ncc(-c5ccc(F)cc5)cc34)c2)cc1OC [Compound P-1818, 1-(3,4-Dimethoxy-phenyl)-3-{3-[5-(4-fluoro-phenyl)-1H-pyrrolo[2,3-b]pyridine-3-carbonyl]-phenyl}-urea]

SMILES | IC50 [1] [µM] | IC50 [2] [µM] | IC50 [3] [µM] | IC50 [4] [µM] | IC50 [5] [µM]
CCCCOc1ccc(NC(=O)Nc2cccc(C(=O)c3c[nH]c4ncc(Cl)cc34)c2)cc1 [Compound P-1741, 1-(4-Butoxy-phenyl)-3-[3-(5-chloro-1H-pyrrolo[2,3-b]pyridine-3-carbonyl)-phenyl]-urea] | ≤ 10 |  | ≤ 10 | ≤ 10 | 
CCCCOc1ccc(NC(=O)Nc2cccc(C(=O)c3c[nH]c4ncccc34)c2)cc1 [Compound P-1715, 1-(4-Butoxy-phenyl)-3-[3-(1H -pyrrolo[2,3-b]pyridine-3-carbonyl)-phenyl]-urea] | ≤ 10 |  | ≤ 10 | ≤ 10 | 

From patent publication US8415469B2, “Compounds and methods for kinase modulation, and indications therefor” (Plexxikon Inc., priority 2005, dated 2013)
